Values after ≈ are worked out from the molar mass of the structure shown.
How the values were obtained:
[1] = biological target: T1, Free fatty acid receptor 1 (Homo sapiens, UniProt O14842); assay: Agonist activity at GPR40 (unknown origin) expressed in CHO cells at 5 uM by FLIPR calcium flux assay relative to GW9508; assay type: functional, cell-based
[2] = biological target: T1, Free fatty acid receptor 1; assay: Agonist activity at GPR40 (unknown origin) expressed in CHO cells by FLIPR calcium flux assay in presence of 0.1% bovine serum albumin; assay type: functional, cell-based
[3] = Apparent permeability from apical to basolateral side in human Caco2 cells assessed […] at 10 uM by HPLC-MS analysis; assay type: ADME, cell-based; conditions: Caco-2
CYP3A4 = CYP3A4 (Homo sapiens, UniProt P08684); assay: Inhibition of CYP3A4 (unknown origin) at 5 uM by luminescent readout-based method; assay type: ADME
Chain of CYP3A4 (P08684 whole entry): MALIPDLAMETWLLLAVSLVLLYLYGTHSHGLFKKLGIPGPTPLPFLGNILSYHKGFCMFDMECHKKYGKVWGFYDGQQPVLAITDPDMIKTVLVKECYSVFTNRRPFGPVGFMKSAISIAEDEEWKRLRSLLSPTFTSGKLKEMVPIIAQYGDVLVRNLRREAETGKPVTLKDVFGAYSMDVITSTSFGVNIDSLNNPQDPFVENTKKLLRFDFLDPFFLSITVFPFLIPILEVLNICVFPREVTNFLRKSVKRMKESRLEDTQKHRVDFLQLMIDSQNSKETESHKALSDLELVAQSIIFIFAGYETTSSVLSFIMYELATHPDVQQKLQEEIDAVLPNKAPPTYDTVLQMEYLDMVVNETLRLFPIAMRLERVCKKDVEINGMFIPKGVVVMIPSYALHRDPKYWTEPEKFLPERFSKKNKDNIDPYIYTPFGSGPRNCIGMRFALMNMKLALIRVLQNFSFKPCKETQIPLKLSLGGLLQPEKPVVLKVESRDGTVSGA

CYP2C9 [4] = biological target: T2, CYP2C9 (Homo sapiens, UniProt P11712); assay: Inhibition of CYP2C9 (unknown origin) at 5 uM by luminescent readout-based method; assay type: ADME
T2 sequence (P11712 whole entry): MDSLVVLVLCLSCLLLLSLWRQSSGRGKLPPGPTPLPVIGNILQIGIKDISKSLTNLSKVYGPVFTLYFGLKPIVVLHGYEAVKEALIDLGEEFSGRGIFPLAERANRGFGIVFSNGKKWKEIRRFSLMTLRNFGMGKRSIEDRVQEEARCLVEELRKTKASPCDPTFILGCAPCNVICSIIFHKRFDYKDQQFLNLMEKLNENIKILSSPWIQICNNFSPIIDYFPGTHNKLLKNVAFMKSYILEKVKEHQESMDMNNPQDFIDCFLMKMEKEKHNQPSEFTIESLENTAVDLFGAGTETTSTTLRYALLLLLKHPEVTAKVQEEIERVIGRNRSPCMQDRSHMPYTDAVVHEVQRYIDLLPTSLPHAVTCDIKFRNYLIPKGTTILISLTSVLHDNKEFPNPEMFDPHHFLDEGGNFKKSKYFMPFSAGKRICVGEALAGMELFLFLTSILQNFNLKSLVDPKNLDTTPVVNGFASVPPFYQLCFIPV

[5] = Half life in BALB/c mouse liver microsomes at 2 uM by HPLC-MS analysis; assay type: ADME
CYP1A2 = biological target: T3, CYP1A2 (Homo sapiens, UniProt P05177); assay: Inhibition of CYP1A2 (unknown origin) at 5 uM by luminescent readout-based method; assay type: ADME
T3 sequence (P05177 whole entry): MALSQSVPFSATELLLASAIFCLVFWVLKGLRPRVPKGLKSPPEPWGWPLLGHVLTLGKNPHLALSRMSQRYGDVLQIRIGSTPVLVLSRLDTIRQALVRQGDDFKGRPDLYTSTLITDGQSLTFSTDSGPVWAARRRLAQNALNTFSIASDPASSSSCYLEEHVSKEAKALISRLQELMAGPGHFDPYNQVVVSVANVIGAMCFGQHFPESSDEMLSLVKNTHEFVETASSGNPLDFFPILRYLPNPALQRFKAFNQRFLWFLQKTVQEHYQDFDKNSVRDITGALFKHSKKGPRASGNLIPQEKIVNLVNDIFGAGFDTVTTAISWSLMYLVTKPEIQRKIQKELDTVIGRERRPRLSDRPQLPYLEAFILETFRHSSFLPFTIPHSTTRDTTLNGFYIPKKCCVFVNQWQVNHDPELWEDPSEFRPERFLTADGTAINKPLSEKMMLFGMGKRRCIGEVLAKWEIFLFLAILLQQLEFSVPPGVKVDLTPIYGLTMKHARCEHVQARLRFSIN

[6] = Kinetic solubility of the compound in phosphate-buffered saline at pH 7.4 by filter microplate technique; assay type: physicochemical; conditions: read-out: Kinetic_solubility
CYP2D6 [7] = biological target: T4, CYP2D6 (Homo sapiens, UniProt P10635); assay: Inhibition of CYP2D6 (unknown origin) at 5 uM by luminescent readout-based method; assay type: ADME
T4 sequence (P10635 whole entry): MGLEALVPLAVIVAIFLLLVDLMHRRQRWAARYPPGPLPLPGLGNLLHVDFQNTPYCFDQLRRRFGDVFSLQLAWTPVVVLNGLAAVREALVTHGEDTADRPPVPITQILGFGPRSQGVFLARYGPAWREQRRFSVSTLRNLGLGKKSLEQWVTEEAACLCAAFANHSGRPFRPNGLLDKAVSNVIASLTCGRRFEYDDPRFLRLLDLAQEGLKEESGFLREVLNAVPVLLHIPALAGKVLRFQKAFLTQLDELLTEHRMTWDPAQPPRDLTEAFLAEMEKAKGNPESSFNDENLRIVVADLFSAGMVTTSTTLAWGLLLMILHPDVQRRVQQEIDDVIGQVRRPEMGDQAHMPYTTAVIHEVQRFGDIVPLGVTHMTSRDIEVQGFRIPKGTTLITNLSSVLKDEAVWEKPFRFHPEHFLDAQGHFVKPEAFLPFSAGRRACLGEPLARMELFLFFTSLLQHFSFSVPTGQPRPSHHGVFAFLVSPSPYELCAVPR

[8] = biological target: T5, Free fatty acid receptor 2 (Homo sapiens, UniProt O15552); assay: Agonist activity at GPR43 (unknown origin) expressed in CHO cells by FLIPR calcium flux assay in presence of 0.1% bovine serum albumin; assay type: functional, cell-based
T5 sequence (O15552 whole entry): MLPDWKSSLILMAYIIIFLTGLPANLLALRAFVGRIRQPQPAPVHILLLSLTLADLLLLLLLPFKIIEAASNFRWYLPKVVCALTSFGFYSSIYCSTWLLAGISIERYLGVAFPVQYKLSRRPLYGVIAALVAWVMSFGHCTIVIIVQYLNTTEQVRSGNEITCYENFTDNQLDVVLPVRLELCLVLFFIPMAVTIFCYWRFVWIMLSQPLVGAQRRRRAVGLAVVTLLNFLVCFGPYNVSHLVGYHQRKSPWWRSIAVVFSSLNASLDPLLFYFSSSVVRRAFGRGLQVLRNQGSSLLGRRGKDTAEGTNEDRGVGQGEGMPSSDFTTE

[9] = biological target: T6, Free fatty acid receptor 4 (Homo sapiens, UniProt Q5NUL3); assay: Agonist activity at GPR120 (unknown origin) expressed in CHO cells by FLIPR calcium flux assay in presence of 0.1% bovine serum albumin; assay type: functional, cell-based
T6 sequence (Q5NUL3 whole entry): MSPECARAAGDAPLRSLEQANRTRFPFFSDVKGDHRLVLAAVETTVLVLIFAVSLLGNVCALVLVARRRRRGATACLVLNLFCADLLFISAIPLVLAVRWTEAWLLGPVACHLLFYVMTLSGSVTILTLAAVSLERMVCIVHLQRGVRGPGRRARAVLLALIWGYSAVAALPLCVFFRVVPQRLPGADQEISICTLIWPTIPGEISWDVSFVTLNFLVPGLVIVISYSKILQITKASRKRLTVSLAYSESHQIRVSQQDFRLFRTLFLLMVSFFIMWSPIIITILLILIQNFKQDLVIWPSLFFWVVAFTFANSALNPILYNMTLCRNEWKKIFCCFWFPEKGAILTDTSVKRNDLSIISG

[10] = biological target: T7, Free fatty acid receptor 3 (Homo sapiens, UniProt O14843); assay: Agonist activity at GPR41 (unknown origin) expressed in CHO cells by FLIPR calcium flux assay in presence of 0.1% bovine serum albumin; assay type: functional, cell-based
T7 sequence (O14843 whole entry): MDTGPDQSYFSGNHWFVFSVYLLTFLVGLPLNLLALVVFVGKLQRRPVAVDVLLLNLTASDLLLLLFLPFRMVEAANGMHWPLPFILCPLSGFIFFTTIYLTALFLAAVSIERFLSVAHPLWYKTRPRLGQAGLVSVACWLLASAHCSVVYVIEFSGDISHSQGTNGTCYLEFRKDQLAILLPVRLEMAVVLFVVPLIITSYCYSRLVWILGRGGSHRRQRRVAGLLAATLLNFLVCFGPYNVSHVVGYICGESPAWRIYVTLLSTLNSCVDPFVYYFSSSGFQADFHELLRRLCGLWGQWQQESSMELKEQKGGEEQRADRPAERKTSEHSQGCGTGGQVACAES

CYP2C19 [11] = biological target: T8, CYP2C19 (Homo sapiens, UniProt P33261); assay: Inhibition of CYP2C19 (unknown origin) at 5 uM by luminescent readout-based method; assay type: ADME
T8 sequence (P33261 whole entry): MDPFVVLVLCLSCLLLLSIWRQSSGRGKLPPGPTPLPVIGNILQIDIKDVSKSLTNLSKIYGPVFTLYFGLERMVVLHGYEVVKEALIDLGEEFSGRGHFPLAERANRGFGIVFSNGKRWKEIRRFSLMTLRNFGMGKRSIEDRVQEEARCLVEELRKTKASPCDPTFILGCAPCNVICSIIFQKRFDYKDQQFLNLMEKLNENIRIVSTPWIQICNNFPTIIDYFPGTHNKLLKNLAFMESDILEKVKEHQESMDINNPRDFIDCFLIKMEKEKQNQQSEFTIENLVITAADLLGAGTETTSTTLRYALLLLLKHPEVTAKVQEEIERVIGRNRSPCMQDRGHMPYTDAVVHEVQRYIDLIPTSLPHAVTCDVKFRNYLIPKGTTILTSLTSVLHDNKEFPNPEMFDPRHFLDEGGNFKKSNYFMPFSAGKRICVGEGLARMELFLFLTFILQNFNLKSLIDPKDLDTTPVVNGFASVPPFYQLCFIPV

[12] = Plasma protein binding in human at 1 uM after 5 hrs by HPLC-MS/MS analysis; assay type: ADME, cell-free; conditions: read-out: PPB (converted)
CYP2C19 [13] = biological target: T8, CYP2C19; assay: Inhibition of CYP2C19 (unknown origin) at 24 uM by luminescent readout-based method; assay type: ADME
CYP2C9 [14] = biological target: T2, CYP2C9; assay: Inhibition of CYP2C9 (unknown origin) at 120 uM by luminescent readout-based method; assay type: ADME
CYP2D6 [15] = biological target: T4, CYP2D6; assay: Inhibition of CYP2D6 (unknown origin) at 1 uM by luminescent readout-based method

T1 sequence (O14842 whole entry): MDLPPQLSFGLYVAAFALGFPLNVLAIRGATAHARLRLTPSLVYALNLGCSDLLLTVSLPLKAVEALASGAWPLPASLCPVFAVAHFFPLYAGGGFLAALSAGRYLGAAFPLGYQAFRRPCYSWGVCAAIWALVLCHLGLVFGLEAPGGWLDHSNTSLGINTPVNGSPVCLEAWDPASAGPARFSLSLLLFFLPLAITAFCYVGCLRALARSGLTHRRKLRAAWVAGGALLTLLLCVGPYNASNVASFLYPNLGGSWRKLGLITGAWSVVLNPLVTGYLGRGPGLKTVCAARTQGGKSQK

O=C(O)Cc1ccc(OCc2nc(-c3cccc(Cl)c3)no2)cc1
Efficacy [1]: 69% | EC50 [2]: 18800 nM

Cc1cccc(-c2noc(COc3ccc(CCC(=O)O)cc3Cl)n2)c1
Efficacy [1]: 54% | EC50 [2]: 4580 nM

O=C(O)CCc1ccc(OCc2ncc(-c3ccccc3)o2)cc1
Efficacy [1]: 58% | EC50 [2]: 1600 nM

O=C(O)CCc1ccc(OCc2nc(-c3ccccc3)no2)c(Cl)c1
Efficacy [1]: 95% | EC50 [2]: 13100 nM

O=C(O)CCc1ccc(OCc2nc(-c3cccs3)no2)cc1
Efficacy [1]: 59% | EC50 [2]: 2570 nM

Cc1oc(-c2ccccc2)nc1COc1ccc(CCC(=O)O)cc1
Papp A→B at 10 µM [3]: 15.2 ×10⁻⁶ cm/s | Efficacy [1]: 103% | inhibition at 5 µM (CYP3A4): 36.2% | inhibition at 5 µM (CYP2C9 [4]): 10.8% | half-life at 2 µM [5]: 7.23 h | inhibition at 5 µM (CYP1A2): 8.9% | solubility kinetic [6]: 404 µM (≈ 136 µg/mL) | inhibition at 5 µM (CYP2D6 [7]): 17.7% | EC50 [8]: > 10000 nM | EC50 [9]: > 10000 nM | EC50 [10]: > 10000 nM | inhibition at 5 µM (CYP2C19 [11]): 23.6% | EC50 [2]: 58 nM | fraction unbound at 5 h, 1 µM [12]: 0.014

COc1cccc(-c2noc(COc3ccc(CCC(=O)O)cc3)n2)c1
Efficacy [1]: 81% | EC50 [2]: 2670 nM

O=C(O)CCc1ccc(OCc2ncc(-c3cccc(F)c3)o2)cc1
Efficacy [1]: 81% | EC50 [2]: 1070 nM

O=C(O)CCc1ccc(OCc2nc(-c3ccccc3)no2)cc1
Efficacy [1]: 65% | EC50 [2]: 1130 nM

O=C(O)CCc1ccc(OCc2noc(-c3ccccc3)n2)cc1
Efficacy [1]: 42% | EC50 [2]: 2650 nM

O=C(O)CCc1ccc(OCc2nc(-c3cccc(C(F)(F)F)c3)no2)c(Cl)c1
Efficacy [1]: 22% | EC50 [2]: 30100 nM

O=C(O)CCc1ccc(OCc2nc(-c3ccc(C(F)(F)F)cc3)no2)cc1
Efficacy [1]: 73% | EC50 [2]: 610 nM

O=C(O)CCc1ccc(OCc2nc(-c3ccco3)no2)cc1
EC50 [2]: > 100000 nM

COc1ccc2[nH]c([S+]([O-])Cc3ncc(C)c(OC)c3C)nc2c1 (stereo unspecified) [OMEPRAZOLE]
inhibition at 24 µM (CYP2C19 [13]): 93.4%

COc1cccc(-c2noc(COc3ccc(CCC(=O)O)cc3Cl)n2)c1
Efficacy [1]: 88% | EC50 [2]: 3000 nM

O=C(O)CCc1ccc(OCc2nc(-c3ccc(F)cc3)no2)cc1
Efficacy [1]: 66% | EC50 [2]: 680 nM

O=C(O)CCc1ccc(OCc2coc(-c3cccc(Cl)c3)n2)cc1
Efficacy [1]: 106% | EC50 [2]: 160 nM

CC(Oc1ccc(CCC(=O)O)cc1)c1nc(-c2cccs2)no1 (stereo unspecified)
Efficacy [1]: 94% | EC50 [2]: 4000 nM

CC(Oc1ccc(CCC(=O)O)cc1)c1nc(-c2ccccc2)no1 (stereo unspecified)
Efficacy [1]: 109% | EC50 [2]: 2390 nM

OC(Cn1cncn1)(Cn1cncn1)c1ccc(F)cc1F [FLUCONAZOLE]
inhibition at 120 µM (CYP2C9 [14]): 89.1%

O=C(O)CCc1ccc(OCc2nc(-c3ccccc3Cl)no2)cc1
Efficacy [1]: 61% | EC50 [2]: 1200 nM

O=C(O)CCc1ccc(OCc2coc(-c3ccccc3)n2)cc1
Efficacy [1]: 98% | EC50 [2]: 700 nM

CCc1ccc(-c2noc(COc3ccc(CCC(=O)O)cc3)n2)cc1
Efficacy [1]: 106% | EC50 [2]: 210 nM

CC(Oc1ccc(CCC(=O)O)cc1)c1nc(-c2ccc(Cl)cc2)no1 (stereo unspecified)
Efficacy [1]: 68% | EC50 [2]: 500 nM

C=C[C@H]1C[N@@]2CC[C@H]1C[C@@H]2[C@@H](O)c1ccnc2ccc(OC)cc12 [QUINIDINE]
inhibition at 1 µM (CYP2D6 [15]): 96.2%

O=C(O)CCc1ccc(OCc2coc(-c3cccc(F)c3)n2)cc1
Efficacy [1]: 99% | EC50 [2]: 560 nM

O=C(O)CCc1ccc(OCc2nc(-c3cccc(C(F)(F)F)c3)no2)cc1
Efficacy [1]: 65% | EC50 [2]: 1110 nM

O=C(O)CCc1ccc(OCc2nc(-c3ccc(Cl)cc3)no2)cc1
Papp A→B at 10 µM [3]: 2.1 ×10⁻⁶ cm/s | Efficacy [1]: 84% | inhibition at 5 µM (CYP3A4): 50.1% | inhibition at 5 µM (CYP2C9 [4]): 16.2% | half-life at 2 µM [5]: 12.1 h | inhibition at 5 µM (CYP1A2): 25.9% | solubility kinetic [6]: 214 µM (≈ 76.8 µg/mL) | inhibition at 5 µM (CYP2D6 [7]): -5.8% | EC50 [8]: > 10000 nM | EC50 [9]: > 10000 nM | EC50 [10]: > 10000 nM | inhibition at 5 µM (CYP2C19 [11]): 31.6% | EC50 [2]: 540 nM | fraction unbound at 5 h, 1 µM [12]: 0.001

Cc1cc(-c2noc(COc3ccc(CCC(=O)O)cc3)n2)ccc1F
Efficacy [1]: 75% | EC50 [2]: 2120 nM

O=C(O)CCc1ccc(OCc2ncc(-c3cccc(Cl)c3)o2)cc1
Efficacy [1]: 30% | EC50 [2]: 47500 nM

O=C(O)CCc1ccc(OCc2nc(-c3cccc(Br)c3)no2)cc1
Efficacy [1]: 130% | EC50 [2]: 1260 nM

Cc1ccc(-c2noc(COc3ccc(CCC(=O)O)cc3)n2)cc1
Papp A→B at 10 µM [3]: 27.3 ×10⁻⁶ cm/s | Efficacy [1]: 99% | inhibition at 5 µM (CYP3A4): 29.2% | inhibition at 5 µM (CYP2C9 [4]): 4.26% | half-life at 2 µM [5]: 6.22 h | inhibition at 5 µM (CYP1A2): 13.6% | solubility kinetic [6]: 334 µM (≈ 113 µg/mL) | inhibition at 5 µM (CYP2D6 [7]): -8.3% | EC50 [8]: > 10000 nM | EC50 [9]: > 10000 nM | EC50 [10]: > 10000 nM | inhibition at 5 µM (CYP2C19 [11]): 20.6% | EC50 [2]: 300 nM | fraction unbound at 5 h, 1 µM [12]: 0.015

From ChEMBL document CHEMBL3600322, “Phenoxymethyl 1,3-oxazoles and 1,2,4-oxadiazoles as potent and selective agonists of free fatty acid receptor 1 (GPR40)” (Bioorg Med Chem Lett, 2015)
